Reference: paper PMC5513037, “Examining the influence of specificity ligands and ATP-competitive ligands on the overall effectiveness of bivalent kinase inhibitors” (Proteome Science, 2017)

Columns and labels:
Experiment in all cases: KAM-matrix competition in K562 lysate;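 as to 0.001 uM KAM: median log10 fold change of treatment over DMSO control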;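 as to 0.01 uM KAM: median log10 fold change of treatment over DMSO control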;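 as to 0.1 uM KAM: median log10 fold change of treatment over DMSO control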;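 as to 1 uM KAM: median log10 fold change of treatment over DMSO control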;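 as to 10 uM KAM: median log10 fold change of treatment over DMSO control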
Type in all cases: binding
CDK16 = biological target: T1, CDK16 (Homo sapiens, UniProt Q00536)
T1 construct: endogenous in cells; host or cells: K562
T1 sequence (Q00536 whole entry): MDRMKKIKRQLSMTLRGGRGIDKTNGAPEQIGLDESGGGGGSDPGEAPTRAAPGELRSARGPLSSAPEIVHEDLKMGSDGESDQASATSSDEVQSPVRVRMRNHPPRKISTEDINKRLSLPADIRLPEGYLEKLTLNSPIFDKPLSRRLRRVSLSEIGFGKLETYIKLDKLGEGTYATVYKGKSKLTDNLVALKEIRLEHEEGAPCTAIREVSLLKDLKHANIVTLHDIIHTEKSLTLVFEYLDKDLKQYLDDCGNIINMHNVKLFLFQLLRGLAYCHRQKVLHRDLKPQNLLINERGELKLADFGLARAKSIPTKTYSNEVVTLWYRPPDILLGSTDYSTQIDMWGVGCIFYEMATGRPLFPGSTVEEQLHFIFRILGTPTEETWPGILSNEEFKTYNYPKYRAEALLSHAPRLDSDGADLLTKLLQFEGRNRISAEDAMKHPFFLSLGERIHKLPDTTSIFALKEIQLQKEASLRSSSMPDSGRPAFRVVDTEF
Experimental: (§1) Supplement 12953_2017_125_MOESM1_ESM.zip/MS_Supp Info.xlsx, sheet "KAM" | column: 10 uM KAM; 1 uM KAM; 0.1 uM KAM; 0.01 uM KAM; 0.001 uM KAM; RB50

CSK = biological target: T2, CSK (Homo sapiens, UniProt P41240);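 as to 0.001 uM KAM: median log10 fold change of treatment over DMSO control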;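 as to 0.01 uM KAM: median log10 fold change of treatment over DMSO control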;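 as to 0.1 uM KAM: median log10 fold change of treatment over DMSO control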;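 as to 1 uM KAM: median log10 fold change of treatment over DMSO control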;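 as to 10 uM KAM: median log10 fold change of treatment over DMSO control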
T2 construct: endogenous in cells; host or cells: K562
T2 sequence (P41240 whole entry): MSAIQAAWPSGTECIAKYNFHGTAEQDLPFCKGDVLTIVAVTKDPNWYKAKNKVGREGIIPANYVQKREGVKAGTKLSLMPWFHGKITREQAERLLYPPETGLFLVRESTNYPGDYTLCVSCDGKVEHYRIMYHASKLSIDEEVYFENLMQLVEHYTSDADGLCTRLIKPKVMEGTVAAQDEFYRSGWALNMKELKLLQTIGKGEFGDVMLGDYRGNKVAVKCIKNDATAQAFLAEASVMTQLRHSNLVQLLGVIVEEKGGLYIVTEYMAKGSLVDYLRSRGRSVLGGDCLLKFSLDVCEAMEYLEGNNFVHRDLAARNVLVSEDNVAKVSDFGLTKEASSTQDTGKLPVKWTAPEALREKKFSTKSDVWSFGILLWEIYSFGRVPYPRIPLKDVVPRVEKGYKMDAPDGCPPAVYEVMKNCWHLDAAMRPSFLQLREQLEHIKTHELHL
Experimental: as §1

MAP2K7 = biological target: T3, MAP2K7 (Homo sapiens, UniProt O14733);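 as to 0.001 uM KAM: median log10 fold change of treatment over DMSO control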;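 as to 0.01 uM KAM: median log10 fold change of treatment over DMSO control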;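 as to 0.1 uM KAM: median log10 fold change of treatment over DMSO control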;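 as to 1 uM KAM: median log10 fold change of treatment over DMSO control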;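 as to 10 uM KAM: median log10 fold change of treatment over DMSO control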
T3 construct: endogenous in cells; host or cells: K562
T3 sequence (O14733 1-419): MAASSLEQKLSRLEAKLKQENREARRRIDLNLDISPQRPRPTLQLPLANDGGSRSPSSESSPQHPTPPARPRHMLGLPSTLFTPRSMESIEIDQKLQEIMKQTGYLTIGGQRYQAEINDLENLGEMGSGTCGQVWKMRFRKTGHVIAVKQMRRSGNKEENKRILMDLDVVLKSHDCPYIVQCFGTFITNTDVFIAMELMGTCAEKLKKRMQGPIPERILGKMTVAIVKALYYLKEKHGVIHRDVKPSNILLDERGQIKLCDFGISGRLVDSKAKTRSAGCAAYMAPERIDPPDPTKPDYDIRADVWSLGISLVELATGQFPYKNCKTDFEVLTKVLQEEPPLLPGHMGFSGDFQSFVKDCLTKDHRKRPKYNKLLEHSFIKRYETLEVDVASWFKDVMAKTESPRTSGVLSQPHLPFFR
Experimental: as §1

MELK = biological target: T4, MELK (Homo sapiens, UniProt Q14680)
T4 construct: endogenous in cells; host or cells: K562
T4 sequence (Q14680 whole entry): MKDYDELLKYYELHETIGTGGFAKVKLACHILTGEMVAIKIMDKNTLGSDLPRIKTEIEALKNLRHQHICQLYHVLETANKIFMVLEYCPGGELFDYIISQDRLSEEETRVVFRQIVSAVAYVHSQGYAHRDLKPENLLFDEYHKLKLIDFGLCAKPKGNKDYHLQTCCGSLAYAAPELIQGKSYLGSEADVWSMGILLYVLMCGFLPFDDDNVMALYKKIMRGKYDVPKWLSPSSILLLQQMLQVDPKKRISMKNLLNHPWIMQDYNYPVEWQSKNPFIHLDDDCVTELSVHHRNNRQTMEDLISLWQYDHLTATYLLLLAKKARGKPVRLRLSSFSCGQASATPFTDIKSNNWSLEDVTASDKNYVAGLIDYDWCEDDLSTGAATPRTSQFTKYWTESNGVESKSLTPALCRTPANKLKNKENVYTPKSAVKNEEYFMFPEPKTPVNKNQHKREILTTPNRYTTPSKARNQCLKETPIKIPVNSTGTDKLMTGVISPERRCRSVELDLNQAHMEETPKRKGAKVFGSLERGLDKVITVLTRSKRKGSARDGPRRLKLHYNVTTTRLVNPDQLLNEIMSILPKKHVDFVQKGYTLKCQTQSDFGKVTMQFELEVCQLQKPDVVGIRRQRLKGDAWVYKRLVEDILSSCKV
Experimental: as §1

PKN3 = biological target: T5, PKN3 (Homo sapiens, UniProt Q6P5Z2);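 as to 0.001 uM KAM: median log10 fold change of treatment over DMSO control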;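 as to 0.01 uM KAM: median log10 fold change of treatment over DMSO control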;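 as to 0.1 uM KAM: median log10 fold change of treatment over DMSO control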;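 as to 1 uM KAM: median log10 fold change of treatment over DMSO control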;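 as to 10 uM KAM: median log10 fold change of treatment over DMSO control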
T5 construct: endogenous in cells; host or cells: K562
T5 sequence (Q6P5Z2 whole entry): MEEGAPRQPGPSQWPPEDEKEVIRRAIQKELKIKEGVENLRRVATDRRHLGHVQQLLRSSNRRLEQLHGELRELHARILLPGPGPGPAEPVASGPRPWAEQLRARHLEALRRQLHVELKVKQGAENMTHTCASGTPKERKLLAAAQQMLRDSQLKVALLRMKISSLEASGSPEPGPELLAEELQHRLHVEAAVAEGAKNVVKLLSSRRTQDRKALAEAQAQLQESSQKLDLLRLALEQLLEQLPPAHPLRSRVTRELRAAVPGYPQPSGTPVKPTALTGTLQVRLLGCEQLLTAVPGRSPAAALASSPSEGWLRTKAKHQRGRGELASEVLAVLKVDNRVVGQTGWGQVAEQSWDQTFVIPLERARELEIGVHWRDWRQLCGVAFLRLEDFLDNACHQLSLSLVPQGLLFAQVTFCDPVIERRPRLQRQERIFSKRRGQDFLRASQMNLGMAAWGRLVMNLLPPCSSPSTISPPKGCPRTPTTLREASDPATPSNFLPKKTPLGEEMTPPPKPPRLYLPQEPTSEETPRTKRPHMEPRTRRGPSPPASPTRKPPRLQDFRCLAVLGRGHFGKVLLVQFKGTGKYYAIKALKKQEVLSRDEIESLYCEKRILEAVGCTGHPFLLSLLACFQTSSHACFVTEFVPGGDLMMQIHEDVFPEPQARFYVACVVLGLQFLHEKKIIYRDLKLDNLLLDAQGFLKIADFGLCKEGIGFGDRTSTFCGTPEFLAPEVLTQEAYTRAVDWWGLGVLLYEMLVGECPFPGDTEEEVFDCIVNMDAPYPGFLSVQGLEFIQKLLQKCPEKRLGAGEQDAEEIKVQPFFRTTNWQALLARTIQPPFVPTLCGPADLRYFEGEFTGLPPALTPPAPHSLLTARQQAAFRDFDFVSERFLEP
Experimental: as §1

PLK1 = biological target: T6, PLK1 (Homo sapiens, UniProt P53350);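 as to 0.001 uM KAM: median log10 fold change of treatment over DMSO control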;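 as to 0.01 uM KAM: median log10 fold change of treatment over DMSO control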;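 as to 0.1 uM KAM: median log10 fold change of treatment over DMSO control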;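 as to 1 uM KAM: median log10 fold change of treatment over DMSO control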;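 as to 10 uM KAM: median log10 fold change of treatment over DMSO control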
T6 construct: endogenous in cells; host or cells: K562
T6 sequence (P53350 whole entry): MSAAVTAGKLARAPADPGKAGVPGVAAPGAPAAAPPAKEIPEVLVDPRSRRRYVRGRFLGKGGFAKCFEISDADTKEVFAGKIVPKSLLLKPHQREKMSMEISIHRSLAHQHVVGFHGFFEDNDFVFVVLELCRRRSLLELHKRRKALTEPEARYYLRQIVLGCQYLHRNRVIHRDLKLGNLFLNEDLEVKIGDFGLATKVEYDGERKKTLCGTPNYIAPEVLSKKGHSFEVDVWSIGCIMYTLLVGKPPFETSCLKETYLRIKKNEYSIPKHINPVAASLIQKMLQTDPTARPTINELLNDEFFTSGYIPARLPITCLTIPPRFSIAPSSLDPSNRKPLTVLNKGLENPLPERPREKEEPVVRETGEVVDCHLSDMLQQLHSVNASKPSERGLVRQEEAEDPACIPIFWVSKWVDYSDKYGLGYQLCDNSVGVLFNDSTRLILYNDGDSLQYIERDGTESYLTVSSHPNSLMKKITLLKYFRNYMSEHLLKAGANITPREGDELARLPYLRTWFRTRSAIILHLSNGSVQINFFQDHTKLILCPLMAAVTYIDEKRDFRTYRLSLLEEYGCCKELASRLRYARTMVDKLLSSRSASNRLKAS
Experimental: as §1

PRKAA1 = biological target: T7, PRKAA1 (Homo sapiens, UniProt Q13131)
T7 construct: endogenous in cells; host or cells: K562
T7 sequence (Q13131 whole entry): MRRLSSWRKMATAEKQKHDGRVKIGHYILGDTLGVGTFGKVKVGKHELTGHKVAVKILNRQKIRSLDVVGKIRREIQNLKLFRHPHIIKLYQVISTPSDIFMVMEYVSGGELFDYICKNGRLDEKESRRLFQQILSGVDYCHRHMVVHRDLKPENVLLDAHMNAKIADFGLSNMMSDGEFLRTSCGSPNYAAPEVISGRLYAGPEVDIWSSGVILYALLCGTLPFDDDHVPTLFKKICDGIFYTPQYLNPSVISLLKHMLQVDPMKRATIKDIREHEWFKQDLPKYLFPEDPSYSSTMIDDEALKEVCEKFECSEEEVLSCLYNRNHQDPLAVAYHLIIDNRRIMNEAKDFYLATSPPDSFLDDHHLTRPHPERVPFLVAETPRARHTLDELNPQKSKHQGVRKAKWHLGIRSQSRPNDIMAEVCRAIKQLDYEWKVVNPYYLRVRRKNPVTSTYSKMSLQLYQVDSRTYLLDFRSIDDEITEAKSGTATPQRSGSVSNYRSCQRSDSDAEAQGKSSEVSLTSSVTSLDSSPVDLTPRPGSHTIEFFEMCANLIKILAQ
T7 sequence (Q9Y478 2-270 partner limits assumed): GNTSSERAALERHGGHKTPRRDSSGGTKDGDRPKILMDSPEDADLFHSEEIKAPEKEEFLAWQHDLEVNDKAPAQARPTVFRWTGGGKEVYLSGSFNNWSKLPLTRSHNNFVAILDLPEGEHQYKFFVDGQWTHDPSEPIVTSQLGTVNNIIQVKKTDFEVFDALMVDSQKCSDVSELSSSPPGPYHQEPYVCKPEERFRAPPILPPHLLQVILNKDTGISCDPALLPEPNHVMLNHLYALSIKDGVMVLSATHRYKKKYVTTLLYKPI
T7 sequence (P54619 whole entry partner): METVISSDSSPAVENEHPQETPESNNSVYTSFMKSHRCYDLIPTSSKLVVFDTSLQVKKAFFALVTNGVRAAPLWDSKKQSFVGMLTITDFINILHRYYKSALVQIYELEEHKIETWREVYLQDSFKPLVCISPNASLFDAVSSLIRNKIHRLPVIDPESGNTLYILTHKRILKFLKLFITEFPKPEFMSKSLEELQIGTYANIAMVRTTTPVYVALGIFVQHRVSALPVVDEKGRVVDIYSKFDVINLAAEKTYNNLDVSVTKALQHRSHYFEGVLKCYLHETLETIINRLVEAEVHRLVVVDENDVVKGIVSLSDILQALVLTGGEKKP
Experimental: as §1

RPS6KA4 = biological target: T8, RPS6KA4 (Homo sapiens, UniProt O75676)
T8 construct: endogenous in cells; host or cells: K562
T8 sequence (O75676 whole entry): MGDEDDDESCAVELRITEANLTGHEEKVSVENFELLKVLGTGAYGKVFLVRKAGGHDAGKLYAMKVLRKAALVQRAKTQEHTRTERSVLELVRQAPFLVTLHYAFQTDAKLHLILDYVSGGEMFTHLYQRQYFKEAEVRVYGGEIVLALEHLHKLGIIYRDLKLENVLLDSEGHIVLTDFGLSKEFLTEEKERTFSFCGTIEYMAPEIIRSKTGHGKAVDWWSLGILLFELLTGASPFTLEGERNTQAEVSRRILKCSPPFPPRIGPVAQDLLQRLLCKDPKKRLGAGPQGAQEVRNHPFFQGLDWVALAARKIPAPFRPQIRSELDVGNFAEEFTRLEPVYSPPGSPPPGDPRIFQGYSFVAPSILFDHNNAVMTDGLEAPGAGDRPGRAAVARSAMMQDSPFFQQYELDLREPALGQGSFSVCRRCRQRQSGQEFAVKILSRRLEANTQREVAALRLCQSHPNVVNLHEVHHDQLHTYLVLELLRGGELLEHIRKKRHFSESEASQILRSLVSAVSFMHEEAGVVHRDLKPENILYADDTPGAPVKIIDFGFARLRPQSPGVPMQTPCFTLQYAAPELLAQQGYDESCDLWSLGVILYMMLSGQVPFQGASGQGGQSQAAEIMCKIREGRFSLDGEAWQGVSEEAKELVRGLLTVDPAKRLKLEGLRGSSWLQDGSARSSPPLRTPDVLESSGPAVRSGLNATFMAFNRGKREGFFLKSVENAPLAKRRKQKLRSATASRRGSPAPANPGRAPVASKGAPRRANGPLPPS
Experimental: as §1

SPEG = biological target: T9, SPEG (Homo sapiens, UniProt Q15772);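 as to 0.001 uM KAM: median log10 fold change of treatment over DMSO control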;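 as to 0.01 uM KAM: median log10 fold change of treatment over DMSO control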;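 as to 0.1 uM KAM: median log10 fold change of treatment over DMSO control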;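 as to 1 uM KAM: median log10 fold change of treatment over DMSO control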;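 as to 10 uM KAM: median log10 fold change of treatment over DMSO control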
T9 construct: endogenous in cells; host or cells: K562
Experimental: as §1

TLK1 = biological target: T10, TLK1 (Homo sapiens, UniProt Q9UKI8);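 as to 0.001 uM KAM: median log10 fold change of treatment over DMSO control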;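 as to 0.01 uM KAM: median log10 fold change of treatment over DMSO control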;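 as to 0.1 uM KAM: median log10 fold change of treatment over DMSO control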;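 as to 1 uM KAM: median log10 fold change of treatment over DMSO control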;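 as to 10 uM KAM: median log10 fold change of treatment over DMSO control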
T10 construct: endogenous in cells; host or cells: K562 cells (combined S0.8 and P0.8 lysate)
T10 sequence (Q9UKI8 1-766): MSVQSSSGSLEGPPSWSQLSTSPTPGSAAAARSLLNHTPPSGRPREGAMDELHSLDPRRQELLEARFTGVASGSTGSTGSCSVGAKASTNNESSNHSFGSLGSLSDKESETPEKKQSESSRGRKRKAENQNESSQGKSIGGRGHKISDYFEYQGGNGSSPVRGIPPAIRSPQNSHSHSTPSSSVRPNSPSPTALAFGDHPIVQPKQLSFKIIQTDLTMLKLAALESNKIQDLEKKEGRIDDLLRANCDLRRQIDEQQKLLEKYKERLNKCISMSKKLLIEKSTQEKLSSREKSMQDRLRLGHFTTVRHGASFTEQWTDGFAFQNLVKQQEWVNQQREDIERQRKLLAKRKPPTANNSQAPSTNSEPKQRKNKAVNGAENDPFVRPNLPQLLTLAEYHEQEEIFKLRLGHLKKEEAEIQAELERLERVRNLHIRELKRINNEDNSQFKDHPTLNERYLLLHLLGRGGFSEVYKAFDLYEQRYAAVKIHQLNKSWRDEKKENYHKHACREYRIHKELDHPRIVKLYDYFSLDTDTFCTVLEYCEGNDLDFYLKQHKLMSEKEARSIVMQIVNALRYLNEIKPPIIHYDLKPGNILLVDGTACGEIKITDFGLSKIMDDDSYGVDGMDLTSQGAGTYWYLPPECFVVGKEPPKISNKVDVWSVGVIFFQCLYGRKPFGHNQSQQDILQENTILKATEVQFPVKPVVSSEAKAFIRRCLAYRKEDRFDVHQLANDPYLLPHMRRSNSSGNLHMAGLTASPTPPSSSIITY
Experimental: as §1

TRIM28 = biological target: T11, TRIM28 (Homo sapiens, UniProt Q13263);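 as to 0.001 uM KAM: median log10 fold change of treatment over DMSO control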;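 as to 0.01 uM KAM: median log10 fold change of treatment over DMSO control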;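 as to 0.1 uM KAM: median log10 fold change of treatment over DMSO control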;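 as to 1 uM KAM: median log10 fold change of treatment over DMSO control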;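 as to 10 uM KAM: median log10 fold change of treatment over DMSO control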
T11 construct: endogenous in cells; host or cells: K562
Experimental: as §1

[1] = read-out: RB50 (the source's name)
[2] = KAM 0.001-10 uM, read-out: RB50 (the source's name)

SMILES: N#CCc1ccc(Nc2nc(NCCCN)cc(Nc3cc(C4CC4)[nH]n3)n2)cc1 [KAM]
- median Log10 fold change (CDK16; 0.001 uM KAM): 0.002002
- median Log10 fold change (CDK16; 0.01 uM KAM): 0.005918
- median Log10 fold change (CDK16; 0.1 uM KAM): -0.06683
- median Log10 fold change (CDK16; 1 uM KAM): -0.3041
- median Log10 fold change (CDK16; 10 uM KAM): -0.3301
- IC50 (CDK16; [1]): 1.97 µM
- IC50 (CSK; [2]): > 10 µM
- 0.001 uM KAM (CSK; relative to 0 uM KAM = 0): 0.01067
- 0.01 uM KAM (CSK; relative to 0 uM KAM = 0): -0.02135
- 0.1 uM KAM (CSK; relative to 0 uM KAM = 0): 0.028
- 1 uM KAM (CSK; relative to 0 uM KAM = 0): -0.04258
- 10 uM KAM (CSK; relative to 0 uM KAM = 0): -0.03639
- IC50 (MAP2K7; [2]): > 10 µM
- 0.001 uM KAM (MAP2K7; relative to 0 uM KAM = 0): 0.00178
- 0.01 uM KAM (MAP2K7; relative to 0 uM KAM = 0): -0.02319
- 0.1 uM KAM (MAP2K7; relative to 0 uM KAM = 0): -0.04803
- 1 uM KAM (MAP2K7; relative to 0 uM KAM = 0): -0.07056
- 10 uM KAM (MAP2K7; relative to 0 uM KAM = 0): -0.08653
- median Log10 fold change (MELK; 0.001 uM KAM): -0.02147
- median Log10 fold change (MELK; 0.01 uM KAM): 0.005817
- median Log10 fold change (MELK; 0.1 uM KAM): -0.06915
- median Log10 fold change (MELK; 1 uM KAM): -0.3528
- median Log10 fold change (MELK; 10 uM KAM): -0.5701
- IC50 (MELK; [1]): 0.94 µM
- IC50 (PKN3; [2]): > 10 µM
- 0.001 uM KAM (PKN3; relative to 0 uM KAM = 0): 0.01928
- 0.01 uM KAM (PKN3; relative to 0 uM KAM = 0): 0.02728
- 0.1 uM KAM (PKN3; relative to 0 uM KAM = 0): -0.02092
- 1 uM KAM (PKN3; relative to 0 uM KAM = 0): -0.1078
- 10 uM KAM (PKN3; relative to 0 uM KAM = 0): -0.2223
- IC50 (PLK1; [2]): > 10 µM
- 0.001 uM KAM (PLK1; relative to 0 uM KAM = 0): -0.04372
- 0.01 uM KAM (PLK1; relative to 0 uM KAM = 0): 0.0006975
- 0.1 uM KAM (PLK1; relative to 0 uM KAM = 0): -0.07002
- 1 uM KAM (PLK1; relative to 0 uM KAM = 0): -0.1195
- 10 uM KAM (PLK1; relative to 0 uM KAM = 0): -0.1377
- median Log10 fold change (PRKAA1; 0.001 uM KAM): 0.006818
- median Log10 fold change (PRKAA1; 0.01 uM KAM): -0.02218
- median Log10 fold change (PRKAA1; 0.1 uM KAM): -0.1974
- median Log10 fold change (PRKAA1; 1 uM KAM): -0.5073
- median Log10 fold change (PRKAA1; 10 uM KAM): -0.6565
- IC50 (PRKAA1; [1]): 0.284 µM
- median Log10 fold change (RPS6KA4; 0.001 uM KAM): 0.007656
- median Log10 fold change (RPS6KA4; 0.01 uM KAM): -0.02452
- median Log10 fold change (RPS6KA4; 0.1 uM KAM): -0.1561
- median Log10 fold change (RPS6KA4; 1 uM KAM): -0.4146
- median Log10 fold change (RPS6KA4; 10 uM KAM): -0.4828
- IC50 (RPS6KA4; [1]): 0.558 µM
- IC50 (SPEG; [2]): > 10 µM
- 0.001 uM KAM (SPEG; relative to 0 uM KAM = 0): -0.04699
- 0.01 uM KAM (SPEG; relative to 0 uM KAM = 0): 0.03576
- 0.1 uM KAM (SPEG; relative to 0 uM KAM = 0): -0.007872
- 1 uM KAM (SPEG; relative to 0 uM KAM = 0): 0.04064
- 10 uM KAM (SPEG; relative to 0 uM KAM = 0): 0.01523
- IC50 (TLK1; [2]): > 10 µM
- 0.001 uM KAM (TLK1; relative to 0 uM KAM = 0): -0.0133
- 0.01 uM KAM (TLK1; relative to 0 uM KAM = 0): 0.001518
- 0.1 uM KAM (TLK1; relative to 0 uM KAM = 0): -0.1562
- 1 uM KAM (TLK1; relative to 0 uM KAM = 0): -0.3373
- 10 uM KAM (TLK1; relative to 0 uM KAM = 0): -0.1561
- IC50 (TRIM28; [2]): > 10 µM
- 0.001 uM KAM (TRIM28; relative to 0 uM KAM = 0): 0.05535
- 0.01 uM KAM (TRIM28; relative to 0 uM KAM = 0): 0.00293
- 0.1 uM KAM (TRIM28; relative to 0 uM KAM = 0): 0.1066
- 1 uM KAM (TRIM28; relative to 0 uM KAM = 0): 0.08268
- 10 uM KAM (TRIM28; relative to 0 uM KAM = 0): 0.08032
